# Patent EP0565897B1, “Argatroban preparations for ophthalmic use” (priority 1992, dated 1993)
# Key:
# [1] = test system: fibrin formation in the rabbit anterior chamber; assay: Fibrin formation in the anterior chamber caused by laser irradiation (slit lamp microscope); assay type: in vivo, pigmented rabbits; conditions: 0.1 mg/kg/minute intravenously, 30 minutes after the irradiation
# Description: In this example, a model of fibrin formation in the rabbit anterior chamber caused by laser irradiation was used as a measure for testing the action of argatroban. In this model, the seriousness of inflammation and amount of fibrin are determined proportional to the total energy of the laser irradiation. The amount of fibrin can be controled to the desired value by altering total energy of laser irradiation.
# (§1) Matured pigmented rabbits (Dutch rabbits of 2 kg body weight) were irradiated with laser at the iris using an argon laser equipment (product of NIDEK). In one group of the rabbits on the eyes, 8 irradiation points at the same interval on a circle line were made under the conditions of coagulation size of 50 micrometer, output of 1.0 Watt and irradiation time of 0.1 second (condition A). In other group of the rabbits, 8 irradiation points similar to those on the eyes were made under the conditions of coagulation size of 200 micrometer, output of 1.0 Watt and irradiation time of 0.2 second (condition B).
# From 30 minutes prior to and until 30 minutes after irradiations, 0.1 mg/kg/minute of argatroban was administered intravenously from ear vein. Control group received only laser irradiation. Positive control group received 1000 U/kg of heparin intravenously 30 minutes prior to laser irradiation. […]
# The fibrin formation was recorded photographically using a slit lamp microscope.
# dog = assay: LD50 (acute toxicity), dog; assay type: in vivo; conditions: Female, i. v.
# Text: (§2) In the following Table 2, the toxicological data of argatroban is shown.
# [2] = LD50 (acute toxicity), dog; assay type: in vivo; conditions: in vivo, iv, Male, i. v.
# Text: as §2
# [3] = test system: fibrin formation in the anterior chamber; assay: Fibrin formation by administering self-plasma to the anterior chamber; assay type: in vivo, white rabbits; conditions: 150 microliter plasma and 50 microliter argatroban solution (10 mg/ml) injected to the anterior chamber; 24 hours after the administration
# Description: Blood of matured white rabbits (2 kg in body weight) were taken and separated to give plasma. Two hundreds microliter of anterior chamber liquid was taken by conducting centesis into anterior chamber of the same rabbit. Then, 150 microliter of the plasma obained and 50 microliter of argatroban solution (10 mg/ml), 200 microliter in total, were injected to the anterior chamber from the same centesis portion. The control received 150 microliter of plasma and 50 microliter of physiological saline in the same manner at the anterior chamber. The fibrin formation in the anterior chamber 24 hours after the administration was observed and recorded.
# [4] = test system: flare increase in the anterior chamber; assay: Anterior chamber flare after argon laser irradiation (flare cell meter); assay type: in vivo, pigmented rabbits; conditions: condition B
# Text: as §1
# From 30 minutes prior to and until 30 minutes after irradiations, 0.1 mg/kg/minute of argatroban was administered intravenously from ear vein. Control group received only laser irradiation. Positive control group received 1000 U/kg of heparin intravenously 30 minutes prior to laser irradiation.
# For argatroban eye drop, right eyes of the rabbits received 5 mg/ml solution of argatroban, while left eyes were used as a control without application of argatroban.
# Further, the laser irradiation of condition B was effected and then the anterior chamber flare values were estimated using the flare cell meter at 30 minutes and 60 minutes after the irradiation.
# The flare cell meter measures turbidity in the anterior chamber as the photon count. […]
# [5] = LD50 (acute toxicity), mouse; conditions: in vivo
# Text: as §2
# [6] = LD50 (acute toxicity), rat; conditions: in vivo
# Text: as §2
smiles,measurement,setting,value
"CC1CNc2c(cccc2S(=O)(=O)N[C@@H](CCCNC(=N)N)C(=O)N2CC[C@@H](C)C[C@@H]2C(=O)O)C1.O (mixture of isomers) [argatroban, (2R,4R)-4-methyl-1-[N^2-((RS)-3-methyl-1,2,3,4-tetrahydro-8-quinolinesulfonyl)-L-arginyl]-2-piperidinecarboxylic acid hydrate]",fibrin formation,[1]; condition A,no fibrin formation was also observed
same,fibrin formation,[1]; condition B,no fibrin formation was also observed
same,LD50,dog,> 200 mg/kg
same,LD50,[2],> 200 mg/kg
same,fibrin formation,[3],No fibrin formation was observed
same,photon count (/msec),"[4]; eye drop, solution of 5 mg/ml, 30 minutes after laser irradiation",287.7 ± 99.2 (n=4) /msec
same,photon count (/msec),"[4]; eye drop, solution of 5 mg/ml, 60 minutes after laser irradiation",341.2 ± 86.5 (n=4) /msec
same,photon count (/msec),"[4]; intravenous injection at 0.1 mg/kg/min, 30 minutes after laser irradiation",417.7 ± 159.3 (n=4) /msec
same,photon count (/msec),"[4]; intravenous injection at 0.1 mg/kg/min, 60 minutes after laser irradiation",356.9 ± 168.3 (n=4) /msec
same,LD50,"[5]; ip, Female, i. p.",640 mg/kg
same,LD50,"[5]; ip, Male, i. p.",475 mg/kg
same,LD50,"[5]; iv, Female, i. v.",> 81 mg/kg
same,LD50,"[5]; iv, Male, i. v.",> 81 mg/kg
same,LD50,"[5]; po, Female, p. o.",> 15000 mg/kg
same,LD50,"[5]; po, Male, p. o.",> 15000 mg/kg
same,LD50,"[5]; sc, Female, subc.",3900 mg/kg
same,LD50,"[5]; sc, Male, subc.",3750 mg/kg
same,LD50,"[6]; ip, Female, i. p.",409 mg/kg
same,LD50,"[6]; ip, Male, i. p.",320 mg/kg
same,LD50,"[6]; iv, Female, i. v.",> 81 mg/kg
same,LD50,"[6]; iv, Male, i. v.",> 81 mg/kg
same,LD50,"[6]; po, Female, p. o.",> 15000 mg/kg
same,LD50,"[6]; po, Male, p. o.",> 15000 mg/kg
same,LD50,"[6]; sc, Female, subc.",620 mg/kg
same,LD50,"[6]; sc, Male, subc.",700 mg/kg
